In ChEMBL document CHEMBL4477164, “Domino Synthesis of Embelin Derivatives with Antibacterial Activity” (2016):
Calls of active or inactive are those of the source. The rule behind the calls is not given here.

What was measured:
Escherichia coli = experiment: Antibacterial activity against Escherichia coli assessed as bacterial growth inhibition after 24 hrs by broth dilution method; format: functional, organism-based
Pseudomonas aeruginosa = experiment: Antibacterial activity against Pseudomonas aeruginosa assessed as bacterial growth inhibition after 24 hrs by broth dilution method; format: functional, organism-based
Staphylococcus aureus [1] = experiment: Antibacterial activity against vancomycin-intermediate/methicillin-resistant Staphylococcus aureus NRS402 assessed as bacterial growth inhibition after 24 hrs by broth dilution method; format: functional; conditions: NRS402, 24 h
Staphylococcus aureus [2] = experiment: Antibacterial activity against vancomycin/methicillin-sensitive Staphylococcus aureus ATCC 25923 assessed as bacterial growth inhibition after 24 hrs by broth dilution method; format: functional; conditions: ATCC 25923, 24 h

SMILES	Activity (Escherichia coli)	Activity (Pseudomonas aeruginosa)	MIC (Staphylococcus aureus [1])	MIC (Staphylococcus aureus [2])
CCCCCCCCCCCC1=C(O)C(=O)C2=C(OC(C)(C)[C@H]3CC[C@H](C)C[C@H]23)C1=O	inactive	inactive	1 µM	8 µM
CCCCCCCCCCCC1=C(O)C(=O)C2=C(OC(C)(C)[C@H]3COc4ccc(OCC=C(C)C)cc4[C@H]23)C1=O (relative stereo)	inactive	inactive	> 128 µM	> 128 µM
CCCCCCCCCCCC1=C(O)C(=O)C2=C(OC(C)(C)[C@H]3CC[C@@H](C)[C@H]23)C1=O (racemic)	inactive	inactive	4 µM	64 µM
CN[C@H](CC(C)C)C(=O)N[C@H]1C(=O)N[C@@H](CC(N)=O)C(=O)N[C@H]2C(=O)N[C@H]3C(=O)N[C@H](C(=O)N[C@H](C(=O)O)c4cc(O)cc(O)c4-c4cc3ccc4O)[C@H](O)c3ccc(c(Cl)c3)Oc3cc2cc(c3O[C@@H]2O[C@H](CO)[C@@H](O)[C@H](O)[C@H]2O[C@H]2C[C@](C)(N)[C@H](O)[C@H](C)O2)Oc2ccc(cc2Cl)[C@H]1O [VANCOMYCIN]	–	–	–	< 1 µg/mL
CCCCCCCCCCCC1=C(O)C(=O)C2=C(OC(C)(C)[C@H]3COc4ccc(Cl)cc4[C@H]23)C1=O (relative stereo)	inactive	inactive	2 µM	4 µM
CCCCCCCCCCCC1=C(O)C(=O)C=C(O)C1=O [EMBELIN]	inactive	inactive	16 µM	32 µM
Cc1onc(-c2ccccc2)c1C(=O)N[C@@H]1C(=O)N2[C@@H]1SC(C)(C)[C@@H]2C(=O)O [OXACILLIN]	–	–	> 128 µg/mL	< 1 µg/mL
CCCCCCCCCCCC1=C(O)C(=O)C2=C(OC(C)(C)[C@@H]3COc4ccc(Br)cc4[C@H]23)C1=O (relative stereo)	inactive	inactive	32 µM	16 µM
CCCCCCCCCCCC1=C(O)C(=O)C2=C(OC(C)(C)[C@@H]3COc4ccc(Cl)cc4[C@H]23)C1=O (relative stereo)	inactive	inactive	1 µM	4 µM
CCCCCCCCCCCC1=C(O)C(=O)C2=C(OC(C)(C)[C@@H]3COc4ccc(OCC=C(C)C)cc4[C@H]23)C1=O (relative stereo)	inactive	inactive	> 128 µM	> 128 µM
CCCCCCCCCCCC1=C(O)C(=O)C2=C(OC(C)(C)[C@@H]3COc4cc(OC)ccc4[C@H]23)C1=O (relative stereo)	inactive	inactive	1 µM	8 µM
CCCCCCCCCCCC1=C(O)C(=O)C([C@H]2[C@H](C)CC[C@@H]2C(C)(C)OCC)=C(O)C1=O (racemic)	inactive	inactive	> 128 µM	> 128 µM
CCCCCCCCCCCC1=C(O)C(=O)C2=C(OC(C)(C)[C@H]3COc4ccc(Br)cc4[C@H]23)C1=O (relative stereo)	inactive	inactive	32 µM	16 µM
C/C(=C\C(=O)OCCCCCCCCC(=O)O)C[C@@H]1OC[C@H](C[C@@H]2O[C@H]2[C@@H](C)[C@H](C)O)[C@@H](O)[C@H]1O [MUPIROCIN]	–	–	< 1 µg/mL	< 1 µg/mL
CCCCCCCCCCCC1=C(O)C(=O)C2=C(OC(C)(C)[C@H]3COc4cc(OC)ccc4[C@H]23)C1=O (relative stereo)	inactive	inactive	4 µM	64 µM
CCCCCCCCCCCC1=C(O)C(=O)C2=C(OC(C)(C)[C@@H]3COc4ccc5ccccc5c4[C@H]23)C1=O (racemic)	inactive	inactive	> 128 µM	> 128 µM
